From US8999983B2, “Modulators of Hec1 activity and methods therefor” (Taivex Therapeutics Corporation, priority 2011, dated 2015)

Legend:
HeLa cell = assay: Immunostaining and microscopy, metaphase chromosomal misalignment; type: cell-based; conditions: compared to control (DMSO)
Experimental: Immunostaining and Microscopy: Cells were grown on polylysine-coated coverslips. Cells were gently washed with BRB80 buffer (80 mM piperazine-N,N′-bis(2-ethanesulfonic acid) (PIPES) pH 6.8, 5 mM EGTA, 1 mM MgCl2) before fixation with cold 100% methanol or 4% paraformaldehyde in BRB80 or phosphate-buffered saline (PBS). Following permeabilization with 0.4% Triton X-100, cells were blocked with 2% bovine serum albumin (BSA) in PBS and then incubated with anti-α-Tubulin antibodies (mouse, FITC Conjugate; Sigma Aldrich, St. Louis Mo. USA) diluted in 2% BSA in PBS. DAPI (4′,6′-diamidino-2-phenylindole) staining was applied after secondary antibody incubation, and cells were mounted on cover slides with Prolong gold antifade reagent (Life Technologies, Carlsbad Calif. USA 92008). Images were captured with a Zeiss Axioplan 2 microscope equipped with a deconvolution module or with a Zeiss LSM-510 META laser scanning confocal microscope (Carl Zeiss Microscopy, Thomwood N.Y. 10594 USA).
After fixation, cells are stained with anti-tubulin antibody and DAPI to stain for microtubules and DNA, respectively, and imaged. […] Fluorescent images were taken of the cells and the percentage of cells with metaphase misalignment were counted and recorded.

[1] = Body weight in mouse xenograft studies; type: in vivo, nude mice
Experimental: (§1) Mouse Xenograft Studies: Xenograft studies adapted from a previous published protocol (Wu et al, Cancer Res. 2008 Oct. 15; 68(20):8393-9). Female BALB/c nude (nu/nu) mice (5-8 weeks) were obtained from Lasco (Industrial Park, Tai-Ping Area, Taichung City, Taiwan). The animals were maintained under specific pathogen-free conditions, and food and water were supplied ad libitum. Housing and all procedures involving animals were performed according to protocols approved by the IACUC in DCB. Nude mice were inoculated with 17-β-estradiol pellets 72 to 96 h before implantation of BT-474 cells. For subcutaneous implantation of BT-474 cells, cells (1×10^7 in matrix gel/animal) were injected subcutaneously into the right subaxillary region. Treatment started when average tumor volume reached about 200 mm^3; mice were treated (p.o., QD/28 cycles in total) with vehicle A (0.5% methylcellulose), or candidate compounds formulated in vehicle A (10-50 mg/kg body weight). Perpendicular diameter measurement of each tumor were made with digital calipers and the volume of the tumor calculated using formula (L×W×W)/2, in which L and W represent the length and the width, respectively. Body weights were measured three times weekly.
(§2) The in vivo effectiveness of contemplated compounds in the reduction of tumor volume in nude mice is readily apparent.
(§3) Development of resistance to treatment in advanced stage tumors is a well known phenomenon. Activity of select Hec1 inhibitor in such late stage tumors was determined by re-dosing of BT474 xenografted animals that had previously subjected to 35 days of treatment with 110095 (compound 27 of Table 1). Re-treatment with 110095 was starting on day 42 and continued for 21 days.

MDA-MB-231 xenograft = assay: Mouse xenograft study, MDA-MB-231 breast cancer; type: in vivo; conditions: MDA-MB-231 breast cancer xenograft, nude mice
BT474 xenograft = assay: Mouse xenograft study, BT474 breast cancer; type: in vivo, nude mice
Experimental: as §1, §2, §3

cyclin B1 and cyclin D1 = assay: Immunoblot of cyclin B1 and cyclin D1; type: cell-based; conditions: 1 μM
Experimental: Immunoblot Analysis: For immunoblotting experiments, cells were plated in a 6-well culture plate and cultured overnight. Cells were incubated with the test compounds for the indicated time and whole cell lysate was harvested by adding 1×SDS-PAGE Sample Buffer (62.5 mM Tris-HCl (pH 6.8 at 25° C.), 2% w/v SDS, 10% glycerol, 50 mM DTT, and 0.01% w/v bromophenol blue or phenol red). Proteins were separated by SDS-PAGE electrophoresis and transferred to PVDF membrane. Protein expression was immunoblotted using various primary antibodies and detected using Immobilon Western Chemiluminescent HRP Substrate (Millipore, Billerica Mass. 01821 USA). Antibodies used include anti-Cleaved Caspase3, (Rabbit, Cell Signaling Technology, Danvers Mass. 01923 USA); anti-PARP (Rabbit, Cell Signaling Technology, Danvers Mass. 01923 USA); anti-MCL-1 (mouse, BD Biosciences, San Jose Calif. 95131 USA); anti-XIAP (rabbit, Cell Signaling Technology, Danvers Mass. 01923 USA); anti-Bcl-2 (mouse, Santa Cruz Biotechnology, Santa Cruz Calif. 95060); anti-Cyclin BI (mouse, BD Biosciences, San Jose Calif. 95131 USA); anti-Cyclin D1 (mouse, Santa Cruz Biotechnology, Santa Cruz Calif. 95060); Anti-Nek2 (mouse, BD Biosciences, San Jose Calif. 95131 USA); Anti-HEC1, (rabbit, GeneTex, Inc., Irvine Calif. 92606 USA); and anti-actin (mouse, Millipore, Billerica Mass. 01821 USA). […]

MDA-MB-231 = assay: Antiproliferation assay (MTS), MDA-MB-231 cells; type: cell-based; conditions: Homo sapiens, MDA-MB-231, 96 h, read-out: Antiproliferative IC50 MDA-MB-231, Table 1
In short: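 Cells seeded after overnight attachment were treated in triplicate for 96 h at 37 °C, 5% CO2, final DMSO below 1%. Viability read by MTS absorbance; concentration-response curves fitted by linear regression against DMSO controls.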

Caco-2 cell monolayers = assay: Caco-2 cell permeability; type: in vitro ADME; conditions: 2 hour
Experimental: Here, Caco-2 cell line (cat. HTB-37TM) was purchased from the ATCC. Cells were cultivated in T-75 flasks in a cell culture incubator set at 37° C., 5% CO2, 95% relative humidity. Cells were allowed to grow to reach 80-90% confluence before seeding. […] The cells were grown in culture medium consisting of Dulbecco's modified Eagle's medium supplemented with 10% fetal bovine serum, 100 U/mL penicillin and 100 μg/mL streptomycin. The culture medium was replaced every 2 days and the cells were maintained at 37° C., 95% relative humidity and 5% CO2.
For a quality integrity control of the monolayers of seeded cells, the Lucifer yellow (LY) transport experiment was performed to evaluate monolayer integrity. As for a quality control of each filter, the transepithelial electrical resistance (TEER) was measured before the start of and at the end of transport experiments. Physiologically and morphologically well developed Caco-2 cell monolayers with TEER values greater than 400 Ωcm^2 were used for the studies.
The solution volumes in apical and basolateral chambers were set to 0.4 and 0.6 ml respectively. Samples were taken from both the apical and basolateral compartment at the end of the 2 hour incubation at 37° C. […] The excitation and emission wavelengths were 490 nm and 530 nm, respectively.

SMILES: COCCOc1cnc(Sc2cc(C)c(-c3csc(NC(=O)c4ccncc4)n3)c(C)c2)cn1 [Compound 27, N-(4-{4-(5-(2-methoxyethoxy)pyrazin-2-ylthio)-2,6-dimethylphenyl}thiazol-2-yl)isonicotinamide]
- number of cells with metaphase misalignment (HeLa cell): time-dependent increase in the number of cells with metaphase misalignment
- body weight ([1]; re-treatment of late stage xenografts): body weight remained constant
- body weight ([1]; xenograft studies FIG. 7A-7D, nude mice): body weight remained constant
- xenograft tumor outgrowth (MDA-MB-231 xenograft): inhibition of xenograft tumor outgrowth
- xenograft tumor outgrowth (BT474 xenograft; BT474 breast cancer xenograft, nude mice): inhibition of xenograft tumor outgrowth
- activity in late stage tumors on re-treatment (BT474 xenograft; BT474 xenografted animals after 35 days of treatment, re-treatment from day 42 for 21 days): remained effective with late stage tumors
- cyclin B1 and cyclin D1 levels (cyclin B1 and cyclin D1): cyclin BI and cyclin D degradation
- IC50 (MDA-MB-231): 35.1 nM
- Caco-2 permeability (Caco-2 cell monolayers; 10 μM, both directions): moderate Caco-2 permeability
- active efflux (Caco-2 cell monolayers; Caco-2, 10 μM): no indication of significant active efflux
